System: P388
Experiment: Cytotoxicity against mouse P388 cells
Format: functional
Conditions: read-out: ED50 (the source's name)

| Structure (SMILES) | EC50 |
| --- | --- |
| CC1=C[C@@H]2c3c(c(O)c4ccccc4c3O[C@@H]3O[C@H](CO)[C@@H](O)[C@H](O)[C@H]3O)[C@@]3(O)c4ccccc4C(=O)[C@]2(/C=C/C(C)(C)O)[C@@]3(O)C1 [FIRMIANONE A] | 6.5 µM |
| CC1=C[C@@H]2c3c(c(O)c4ccccc4c3O[C@@H]3O[C@H](CO)[C@@H](O)[C@H](O)[C@H]3O)[C@@]3(O)c4cccc(O)c4C(=O)[C@]2(/C=C/C(C)(C)O)[C@@]3(O)C1 [FIRMIANONE B] | 8.1 µM |

Source: ChEMBL document CHEMBL1141766, “Isoprenylated naphthoquinone dimers firmianones A, B, and C from Firmiana platanifolia” (2005)
